Patent publication US20100173930A1, “Certain Chemical Entities, Compositions and Methods” (priority 2006, published 2010)

tested on: SKM MYOFIBRIL; assay: SKM myofibril AC1.4 (ATPase, PK/LDH coupled enzyme system); type: biochemical; settings: screen at pCa=6.5; note: unit not given here

SMILES	SKM MYOFIBRIL AC1.4 (median)
OCc1ccc2nc(-c3ccccc3O)c(NCc3ccc(F)cc3)n2c1 [2-(3-{[(4-fluorophenyl)methyl]amino}-6-(hydroxymethyl)-4-hydroimidazo[1,2-a]pyridin-2-yl)phenol]	4.3564
c1csc(-c2nc3ccccn3c2NC2CCCCC2)c1 [cyclohexyl(2-(2-thienyl)(4-hydroimidazo[1,2-a]pyridin-3-yl))amine]	16.7359
CN(C)CCNCc1ccc2nc(-c3ccccc3O)c(NCc3cccc(Cl)c3)n2c1 [2-[6-({[2-(dimethylamino)ethyl]amino}methyl)-3-{[(3-chlorophenyl)methyl]amino}-4-hydroimidazo[1,2-a]pyridin-2-yl]phenol]	6.9925
Cc1ccn2c(NCc3ccccc3F)c(-c3ccccc3O)nc2c1 [2-(3-{[(2-fluorophenyl)methyl]amino}-7-methyl-4-hydroimidazo[1,2-a]pyridin-2-yl)phenol]	1.0036
C[C@H](Nc1c(-c2ccc(O)cc2)nc2ccccn12)c1ccccc1 [4-{3-[((1S)-1-phenylethyl)amino]-4-hydroimidazo[1,2-a]pyridin-2-yl}phenol]	23.0212
CCC(C)(C)Nc1c(-c2cc3ccc(C)c(C)c3nc2O)nc2ccccn12 [3-{3-[(1,1-dimethylpropyl)amino](4-hydroimidazo[1,2-a]pyridin-2-yl)}-7,8-dimethylquinolin-2-ol]	1.5814
Fc1cccc(-c2nc3ccccn3c2NCc2cccc(Cl)c2)c1 [[(3-chlorophenyl)methyl][2-(3-fluorophenyl)(4-hydroimidazo[1,2-a]pyridin-3-yl)]amine]	43.8606
CCc1ccn2c(NC3CCCC3)c(-c3ccc(O)cc3)nc2c1 [4-[3-(cyclopentylamino)-7-ethyl-4-hydroimidazo[1,2-a]pyridin-2-yl]phenol]	7.5674
Oc1ccc(-c2nc3ccccn3c2NCc2cccc(F)c2)cc1 [4-(3-{[(3-fluorophenyl)methyl]amino}-4-hydroimidazo[1,2-a]pyridin-2-yl)phenol]	28.3763
CC(C)(O)c1ccc2nc(-c3ccccc3O)c(NCc3ccc(F)cc3)n2c1 [2-(3-{[(4-fluorophenyl)methyl]amino}-6-(1-hydroxy-isopropyl)-4-hydroimidazo[1,2-a]pyridin-2-yl)phenol]	4.1299
Cc1ccn2c(NCc3cccc(Cl)c3)c(-c3ccccc3O)nc2c1 [2-(3-{[(3-chlorophenyl)methyl]amino}-7-methyl-4-hydroimidazo[1,2-a]pyridin-2-yl)phenol]	0.9522
Cc1ccn2c(NCc3ccc(F)cc3F)c(-c3ccccc3O)nc2c1 [2-(3-{[(2,4-difluorophenyl)methyl]amino}-7-methyl-4-hydroimidazo[1,2-a]pyridin-2-yl)phenol]	0.959
N#Cc1ccn2c(NC3CCCC3)c(-c3ccc(O)cc3)nc2c1 [3-(cyclopentylamino)-2-(4-hydroxyphenyl)-4-hydroimidazo[1,2-a]pyridine-7-carbonitrile]	17.9621
C[C@H](Nc1c(-c2ccc(O)cc2)nc2ccccn12)C(C)(C)C [4-{3-[((1S)-1,2,2-trimethylpropyl)amino]-4-hydroimidazo[1,2-a]pyridin-2-yl}phenol]	11.8489
CCC(C)(C)Nc1c(-c2cc3cccc(C)c3nc2O)nc2ccccn12 [3-{3-[(1,1-dimethylpropyl)amino](4-hydroimidazo[1,2-a]pyridin-2-yl)}-8-methylquinolin-2-ol]	2.3075
COCCNC(=O)c1ccc2nc(-c3ccccc3O)c(NCc3cccc(Cl)c3)n2c1 [(3-{[(3-chlorophenyl)methyl]amino}-2-(2-hydroxyphenyl)(4-hydroimidazo[1,2-a]pyridin-6-yl))-N-(2-methoxyethyl)carboxamide]	2.0573
COCCNC(=O)c1ccc2nc(-c3ccccc3O)c(NCc3ccc(F)cc3)n2c1 [(3-{[(4-fluorophenyl)methyl]amino}-2-(2-hydroxyphenyl)(4-hydroimidazo[1,2-a]pyridin-6-yl))-N-(2-methoxyethyl)carboxamide]	4.3059
Cc1ccn2c(NCc3ccccc3C)c(-c3ccccc3O)nc2c1 [2-(7-methyl-3-{[(2-methylphenyl)methyl]amino}-4-hydroimidazo[1,2-a]pyridin-2-yl)phenol]	0.9648
Oc1ccc(-c2nc3ccccn3c2NC2CCCCC2)cc1 [4-[3-(cyclohexylamino)-4-hydroimidazo[1,2-a]pyridin-2-yl]phenol]	8.513
Cc1ccn2c(NCc3ccc(F)cn3)c(-c3ccccc3O)nc2c1 [2-(3-{[(5-fluoro(2-pyridyl))methyl]amino}-7-methyl-4-hydroimidazo[1,2-a]pyridin-2-yl)phenol]	7.3934
Cc1ccc2nc(-c3ccccc3O)c(NCc3cccc(Cl)c3)n2c1 [2-(3-{[(3-chlorophenyl)methyl]amino}-6-methyl-4-hydroimidazo[1,2-a]pyridin-2-yl)phenol]	1.1197

SMILES	SKM MYOFIBRIL AC1.4 (median)
Oc1ccc(-c2nc3ccccn3c2NC2CCCC2)cc1 [4-[3-(cyclopentylamino)-4-hydroimidazo[1,2-a]pyridin-2-yl]phenol]	19.8598
Oc1ccc(-c2nc3cc(Cl)ccn3c2NCc2ccc(F)cc2)cc1 [4-(7-chloro-3-{[(4-fluorophenyl)methyl]amino}-4-hydroimidazo[1,2-a]pyridin-2-yl)phenol]	10.9866
Cc1cccc(CNc2c(-c3ccccc3O)nc3cc(C)ccn23)c1 [2-(7-methyl-3-{[(3-methylphenyl)methyl]amino}-4-hydroimidazo[1,2-a]pyridin-2-yl)phenol]	0.9541
COc1cccc(-c2nc3ccccn3c2NCc2cccc(Cl)c2)c1 [[(3-chlorophenyl)methyl][2-(3-methoxyphenyl)(4-hydroimidazo[1,2-a]pyridin-3-yl)]amine]	35.6445
Cc1ccc(-c2nc3ccccn3c2NC2CCCCC2)cc1 [cyclohexyl[2-(4-methylphenyl)(4-hydroimidazo[1,2-a]pyridin-3-yl)]amine]	25.2334
Oc1ccccc1-c1nc2ccc(Br)cn2c1NCc1ccc(F)cc1 [2-(6-bromo-3-{[(4-fluorophenyl)methyl]amino}-4-hydroimidazo[1,2-a]pyridin-2-yl)phenol]	5.6018
Oc1ccccc1-c1nc2cccc(Br)n2c1NCc1cccc(Cl)c1 [2-(5-bromo-3-{[(3-chlorophenyl)methyl]amino}-4-hydroimidazo[1,2-a]pyridin-2-yl)phenol]	12.5914
Cc1cccn2c(NC3CCCCC3)c(-c3ccc(O)cc3)nc12 [4-[3-(cyclohexylamino)-8-methyl-4-hydroimidazo[1,2-a]pyridin-2-yl]phenol]	8.8767
Cc1ccn2c(NCc3cccc(F)c3)c(-c3ccccc3O)nc2c1 [2-(3-{[(3-fluorophenyl)methyl]amino}-7-methyl-4-hydroimidazo[1,2-a]pyridin-2-yl)phenol]	1.4096
Oc1ccccc1-c1nc2ccc(Cl)cn2c1NCc1ccc(F)cc1 [2-(6-chloro-3-{[(4-fluorophenyl)methyl]amino}-4-hydroimidazo[1,2-a]pyridin-2-yl)phenol]	3.5116
Cc1cccn2c(NC3CCCC3)c(-c3ccccc3O)nc12 [2-[3-(cyclopentylamino)-8-methyl-4-hydroimidazo[1,2-a]pyridin-2-yl]phenol]	11.3023
COc1ccc(-c2nc3ccccn3c2NC2CCCCC2)cc1 [cyclohexyl[2-(4-methoxyphenyl)(4-hydroimidazo[1,2-a]pyridin-3-yl)]amine]	16.6703
COc1cccc2nc(O)c(-c3nc4cc(C)ccn4c3NCc3cccc(Cl)c3)cc12 [3-(3-{[(3-chlorophenyl)methyl]amino}-7-methyl(4-hydroimidazo[1,2-a]pyridin-2-yl))-5-methoxyquinolin-2-ol]	2.3608
N#Cc1ccn2c(NCc3ccc(F)cc3)c(-c3ccc(O)cc3)nc2c1 [3-{[(4-fluorophenyl)methyl]amino}-2-(4-hydroxyphenyl)-4-hydroimidazo[1,2-a]pyridine-7-carbonitrile]	19.6705
Cc1ccn2c(NCc3ccc(F)cc3)c(-c3ccccc3O)nc2c1 [2-(3-{[(4-fluorophenyl)methyl]amino}-7-methyl-4-hydroimidazo[1,2-a]pyridin-2-yl)phenol]	1.1306
CN(C)CCNC(=O)c1ccc2nc(-c3ccccc3O)c(NCc3cccc(Cl)c3)n2c1 [N-[2-(dimethylamino)ethyl](3-{[(3-chlorophenyl)methyl]amino}-2-(2-hydroxyphenyl)(4-hydroimidazo[1,2-a]pyridin-6-yl))carboxamide]	2.2231
Cc1ccn2c(NC3CCCCC3)c(-c3ccoc3)nc2c1 [cyclohexyl(2-(3-furyl)-7-methyl(4-hydroimidazo[1,2-a]pyridin-3-yl))amine]	30.5823
CCC(C)(C)Nc1c(-c2cc3cc(C)ccc3nc2O)nc2ccccn12 [3-{3-[(1,1-dimethylpropyl)amino](4-hydroimidazo[1,2-a]pyridin-2-yl)}-6-methylquinolin-2-ol]	1.1087
Cc1ccn2c(NC3CCCC3)c(-c3ccc(O)cc3)nc2c1 [4-[3-(cyclopentylamino)-7-methyl-4-hydroimidazo[1,2-a]pyridin-2-yl]phenol]	4.685
Oc1ccccc1-c1nc2ccc(Br)cn2c1NCc1cccc(Cl)c1 [2-(6-bromo-3-{[(3-chlorophenyl)methyl]amino}-4-hydroimidazo[1,2-a]pyridin-2-yl)phenol]	5.3855
Cc1ccn2c(NCC(=O)N3CCCCC3)c(-c3ccccc3O)nc2c1 [2-{[2-(2-hydroxyphenyl)-7-methyl(4-hydroimidazo[1,2-a]pyridin-3-yl)]amino}-1-piperidylethan-1-one]	40.2086
